The nature of data set [1]: (§1) Evaluation of pharmacokinetic parameters for Estradiol after multiple topical applying Estradiol transdermal systems to the abdomen or the buttocks of 17 healthy, postmenopausal female subjects. Format: ADME, organism-based. Details: dose 0.075 mg/day, dose 0.1 mg/day, dose 0.0375 mg/day, dose 0.05 mg/day, route topical to abdomen, route topical to buttocks. The note with it: human, in vivo, topical or ocular; dose 0.05 mg/day, dosed compound id 17, dosed compound name ESTRADIOL, gender female, regimen Multiple dose, route topical to abdomen, tissue Plasma; read-out: Cmin(80hr).

The subject of the next data set is Homo sapiens. The description is as §1. The data set is classed as ADME, organism-based. On the set-up: dose 0.075 mg/day, dose 0.1 mg/day, dose 0.0375 mg/day, dose 0.05 mg/day, route topical to abdomen, route topical to buttocks. The note with it: in vivo, topical_or_ocular, dosed compound id 17, dosed compound name ESTRADIOL, gender female, regimen Multiple dose, tissue Plasma.

[2] abbreviates: dose 0.0375 mg/day, route topical to abdomen.
[3] abbreviates: dose 0.075 mg/day, route topical to abdomen.
[4] abbreviates: dose 0.1 mg/day, route topical to abdomen.
Where [5] appears, read: dose 0.1 mg/day, route topical to buttocks.

These results are taken from ChEMBL document CHEMBL3832067, “DailyMed|setid=d28bec8f-762e-4f05-a20d-96a42970d6a7 | Estradiol - estradiol patch|Mylan Pharmaceuticals Inc”.

Regarding `C[C@]12CC[C@@H]3c4ccc(O)cc4CC[C@H]3[C@@H]1CC[C@@H]2O` [ESTRADIOL], the concentration at 80 h in data set [1] stood at 0.041 ng/mL. Also, the Cavg in the data set on Homo sapiens (setting [2]) is 0.034 ng/mL; with Homo sapiens (dose 0.05 mg/day, route topical to abdomen), 0.057 ng/mL; in the data set with Homo sapiens (setting [3]), 0.072 ng/mL; in the data set on Homo sapiens (setting [4]), 0.089 ng/mL; in the data set with Homo sapiens (setting [5]), 0.104 ng/mL. Also, the “Cmin(84hr)” value in the data set on Homo sapiens (setting [2]) came out at 0.03 ng/mL; in the data set with Homo sapiens (setting [3]), 0.06 ng/mL; in the data set on Homo sapiens (setting [4]), 0.09 ng/mL; in the data set with Homo sapiens (setting [5]), 0.085 ng/mL.
